In general, IC50 refers to the concentration that inhibits the measured activity by half.

We go through 3 compounds from article PMC4821105 (Pharmacognosy Research, 2016).

In assay [1] the target is T1, TCPTP (Homo sapiens, UniProt P17706).
T1 sequence (P17706 1-415): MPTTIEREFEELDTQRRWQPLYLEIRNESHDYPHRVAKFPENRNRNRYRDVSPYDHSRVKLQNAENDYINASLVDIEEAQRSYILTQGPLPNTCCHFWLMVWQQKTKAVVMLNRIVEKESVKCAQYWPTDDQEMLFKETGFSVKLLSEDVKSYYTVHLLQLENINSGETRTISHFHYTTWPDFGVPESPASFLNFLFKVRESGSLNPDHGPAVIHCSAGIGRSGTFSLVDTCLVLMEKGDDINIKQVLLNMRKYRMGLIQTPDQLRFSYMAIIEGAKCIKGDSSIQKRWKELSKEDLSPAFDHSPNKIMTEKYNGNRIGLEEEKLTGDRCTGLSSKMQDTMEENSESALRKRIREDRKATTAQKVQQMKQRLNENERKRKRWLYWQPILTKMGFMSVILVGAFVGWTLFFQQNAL
In words: T-cell protein tyrosine phosphatase inhibitory activity. The class given is biochemical.

The target of assay [2] is T2, PTP1B (Homo sapiens, UniProt P18031).
T2 sequence (P18031 1-435): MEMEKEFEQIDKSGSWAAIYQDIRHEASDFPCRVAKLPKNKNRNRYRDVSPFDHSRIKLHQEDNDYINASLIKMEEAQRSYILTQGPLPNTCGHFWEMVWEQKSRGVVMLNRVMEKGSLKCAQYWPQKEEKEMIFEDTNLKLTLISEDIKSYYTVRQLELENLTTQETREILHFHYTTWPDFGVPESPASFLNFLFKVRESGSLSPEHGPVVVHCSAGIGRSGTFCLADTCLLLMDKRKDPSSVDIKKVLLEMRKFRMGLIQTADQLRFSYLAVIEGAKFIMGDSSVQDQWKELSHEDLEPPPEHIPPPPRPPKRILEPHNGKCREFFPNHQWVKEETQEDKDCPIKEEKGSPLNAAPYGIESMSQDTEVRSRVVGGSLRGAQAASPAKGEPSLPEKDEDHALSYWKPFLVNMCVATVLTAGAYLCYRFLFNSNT
The assay can be described thus: Protein tyrosine phosphatase 1B inhibitory activity. It counts as biochemical.

In assay [3] the target is T2, PTP1B. Particulars: previous study of 28 medicinal plants; cited from earlier work.

Consider `C[C@H]1[C@H](C)CC[C@]2(C(=O)O)CC[C@]3(C)C(=CC[C@@H]4[C@@]5(C)CC[C@H](O)C(C)(C)[C@@H]5CC[C@]43C)[C@H]12` [Compound 2, ursolic acid], for which half-maximal inhibition in assay [1] (IC50) was put at 6.79 µM.

Consider `CCCCCCCCCCCCCCCC(=O)C1=C(O)C(CO)OC1=O` (stereo not drawn) [RK-682, reference compound], for which the “PTP1B (IC50, μg/mL)” value in assay [2] (pNPP 2 mM, 37°C, 30 min) was determined as 2.05 µg/mL. Further, in assay [3], the “PTP1B IC50 (previous screening of Indonesian herbal medicines)” value was 2.05 µg/mL.

`C=C(C)[C@@H]1CC[C@]2(C(=O)O)CC[C@]3(C)[C@H](CC[C@@H]4[C@@]5(C)CC[C@H](O)C(C)(C)[C@@H]5CC[C@]43C)[C@@H]12` [Compound 1, Betulinic acid]: the IC50 in assay [2] was 3.28 µM; in assay [1] it was 5.25 µM. The inhibition at 10 µg/mL in assay [2] (read-out: PTP1B inhibited activity (%), 10 μg/mL, mean of triplicate) was 98%.
